One assay deals with T1, Alpha-2-macroglobulin (Homo sapiens, UniProt P01023).
T1 sequence (P01023 whole entry): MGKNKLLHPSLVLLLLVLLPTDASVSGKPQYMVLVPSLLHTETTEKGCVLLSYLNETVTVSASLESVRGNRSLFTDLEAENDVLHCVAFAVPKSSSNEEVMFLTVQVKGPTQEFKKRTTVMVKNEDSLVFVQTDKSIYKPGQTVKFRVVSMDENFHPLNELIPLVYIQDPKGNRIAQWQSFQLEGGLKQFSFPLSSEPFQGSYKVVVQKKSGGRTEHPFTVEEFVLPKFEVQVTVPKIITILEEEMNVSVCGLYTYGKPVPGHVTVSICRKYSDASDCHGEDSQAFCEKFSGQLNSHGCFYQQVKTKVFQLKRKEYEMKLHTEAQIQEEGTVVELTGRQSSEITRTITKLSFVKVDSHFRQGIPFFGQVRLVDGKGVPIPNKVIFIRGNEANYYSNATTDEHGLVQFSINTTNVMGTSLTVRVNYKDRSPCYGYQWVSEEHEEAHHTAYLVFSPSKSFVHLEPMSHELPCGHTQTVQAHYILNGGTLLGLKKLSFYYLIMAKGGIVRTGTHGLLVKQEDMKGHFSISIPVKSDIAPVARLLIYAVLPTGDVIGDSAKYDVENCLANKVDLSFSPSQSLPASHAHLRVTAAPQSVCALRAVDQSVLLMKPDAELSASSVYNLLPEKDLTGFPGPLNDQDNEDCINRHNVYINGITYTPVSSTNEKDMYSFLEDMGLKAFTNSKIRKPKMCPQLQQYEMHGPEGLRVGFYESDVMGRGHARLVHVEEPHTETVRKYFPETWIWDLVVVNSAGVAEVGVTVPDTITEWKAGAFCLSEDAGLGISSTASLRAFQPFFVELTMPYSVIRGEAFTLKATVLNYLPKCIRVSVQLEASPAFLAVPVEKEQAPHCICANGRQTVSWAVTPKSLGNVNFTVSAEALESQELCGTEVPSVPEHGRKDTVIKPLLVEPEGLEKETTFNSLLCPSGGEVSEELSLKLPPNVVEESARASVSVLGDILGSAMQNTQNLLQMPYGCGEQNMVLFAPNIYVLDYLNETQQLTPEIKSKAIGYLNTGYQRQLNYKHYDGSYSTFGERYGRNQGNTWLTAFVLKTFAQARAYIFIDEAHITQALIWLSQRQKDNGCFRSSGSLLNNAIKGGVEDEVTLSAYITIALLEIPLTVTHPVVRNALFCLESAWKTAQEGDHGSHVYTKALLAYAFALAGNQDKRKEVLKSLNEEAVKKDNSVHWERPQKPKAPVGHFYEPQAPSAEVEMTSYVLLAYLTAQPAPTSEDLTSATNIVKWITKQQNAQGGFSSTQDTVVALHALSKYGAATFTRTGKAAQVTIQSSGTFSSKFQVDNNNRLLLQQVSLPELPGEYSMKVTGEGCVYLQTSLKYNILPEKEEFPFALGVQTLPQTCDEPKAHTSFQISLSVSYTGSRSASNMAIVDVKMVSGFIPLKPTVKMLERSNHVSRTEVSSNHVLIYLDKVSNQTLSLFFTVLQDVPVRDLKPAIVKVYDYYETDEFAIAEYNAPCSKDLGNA
Nature of the assay: Inhibition of alpha-2 macroglobulin (unknown origin).

A short description of assay [1]: Inhibition of glutathione S-transferase (unknown origin). On the set-up: species or system Homo sapiens.

Turning to `CC(C)CC[C@]1(O)[C@@]2(O)C(=O)O[C@]13C(=Cc1cccc(O)c1[C@@H]3O)C(=O)[C@@H]2C`, inhibition on Alpha-2-macroglobulin was half-maximal at 257 µM (IC50). On to `CC(C)CC[C@@]1(O)c2cc3c(O)cccc3cc2C(=O)[C@H](C)[C@]1(O)C(=O)O`, for which the values for the IC50 (on Alpha-2-macroglobulin; in assay [1]) were 94 µM and 26.9 µM, respectively.

What is called IC50 is the concentration needed to halve the response being measured. A high value points to weaker potency.
